Data as given in US20030170309A1, “Pharmaceutical compositions containing polymer and drug assemblies” (priority 2001, published 2003).
≈ marks a conversion by molar mass, not a printed value. One block for each compound: values may come before it.

Assays:
[1] = Dissolution test of amorphous Drug 1 in PBS with varying HPMCAS-MF concentration; type: physicochemical; details: amorphous Drug 1 10 mg/mL added, PBS 37°C
Protocol: First, HPMCAS-MF was dissolved in PBS with stirring at 37° C. and 1.5 mL of this solution was placed in a microcentrifuge tube.

[2] = type: physicochemical
Protocol: To determine the composition of the polymer/drug assemblies, solutions formed from the dispersions of Example 30 and Example 31 in PBS were analyzed using HPLC and NMR, as described in Example 4. […] To measure the free drug concentration using NMR, 2 wt % NaTC/POPC was added to the solution. By measuring the amount of drug that partitioned into NaTC/POPC micelles, the concentration of free drug in PBS was calculated using the equation: […]
where DM is the concentration of drug in micelles (measured by NMR), Kp is the partition coefficient for drug partitioning between water and micelles (30,000), Df is the free drug concentration in PBS, and VM is the volume ratio occupied by micelles in the PBS solution (cm^3 micelles/cm^3 solution=0.021). […] The amount of polymer contained in the polymer/drug assemblies was calculated by subtracting the free polymer and the polymer in the precipitate from the total polymer added to solution (contained in the solid dispersions). […]
The dispersions of Examples 30 and 31 were added to PBS with varying amounts of NaTC/POPC, and the concentration of drug in NaTC/POPC micelles was measured by NMR spectroscopy. […]
The free drug concentration with no micelles present was calculated as follows. […]
Aqueous solutions formed from the solid dispersion of Example 40 were analyzed using DLS and NMR, as described in Examples 3 and 4. […]

[3] = Solubility of the drug alone (crystalline or amorphous); details: for solubility: thermodynamic from solid
[4] = dispersion of YM022 in HPMC and polyoxyethylene hydrogenated castor oil administered to aqueous solution; cited from earlier work
[5] = rats, colloidal solution; cited from earlier work
[6] = HPMCAS-MF 0 mg/mL (amorphous drug alone)

- HPLC Total Dissolved Drug 1 at 90 min. [1, 6]: 224 µg/mL
- HPLC Total Dissolved Drug 1 at 1200 min. [1, 6]: 196 µg/mL
- HPLC Total Dissolved Drug 1 at 90 min. ([1]; HPMCAS-MF 0.5 mg/mL): 447 µg/mL
- HPLC Total Dissolved Drug 1 at 1200 min. ([1]; HPMCAS-MF 0.5 mg/mL): 289 µg/mL
- HPLC Total Dissolved Drug 1 at 90 min. ([1]; HPMCAS-MF 1 mg/mL): 487 µg/mL
- HPLC Total Dissolved Drug 1 at 1200 min. ([1]; HPMCAS-MF 1 mg/mL): 203 µg/mL
- HPLC Total Dissolved Drug 1 at 90 min. ([1]; HPMCAS-MF 5 mg/mL): 4928 µg/mL
- HPLC Total Dissolved Drug 1 at 1200 min. ([1]; HPMCAS-MF 5 mg/mL): 1550 µg/mL
- HPLC Total Dissolved Drug 1 at 90 min. ([1]; HPMCAS-MF 10 mg/mL): 7453 µg/mL
- HPLC Total Dissolved Drug 1 at 1200 min. ([1]; HPMCAS-MF 10 mg/mL): 5431 µg/mL
- HPLC Total Dissolved Drug 1 at 90 min. ([1]; HPMCAS-MF 20 mg/mL): 8099 µg/mL
- HPLC Total Dissolved Drug 1 at 1200 min. ([1]; HPMCAS-MF 20 mg/mL): 7451 µg/mL
SMILES: O=C(N[C@@H](Cc1ccccc1)[C@@H](O)C(=O)N1C[C@@H](O)[C@@H](O)C1)c1cc2cc(Cl)ccc2[nH]1 [Drug 1, 5-chloro-1H-indole-2-carboxylic acid [(1S)-benzyl-3-((3R, 4S)-dihydroxypyrroldin-1-yl-)-(2R)-hydroxy-3-oxypropyl] amide]

- Kp, partition coefficient for drug partitioning between water and micelles [2]: 30,000
- Drug 2 Concentration, NaTC/POPC Conc. 0 wt % ([2]; crystalline Drug 2, value obtained in a separate experiment): 0.01 µg/mL
- solubility ([3]; PBS with 2% NaTC/POPC, fassgf or other biorelevant, Solubility of crystalline Drug 2 in 2% NaTC/POPC in PBS, 2% NaTC/POPC in PBS): 6 µg/mL (≈ 9.99 µM)
- solubility ([3]; PBS, Solubility of the crystalline Drug 2): 0.01 µg/mL (≈ 0.0167 µM)
- solubility ([3]; aqueous solution without micelles, Solubility of Drug 2 in aqueous solution without micelles, crystalline Drug 2, separate experiments): ~0.01 µg/mL (≈ 0.0167 µM)
- Solubility of Drug 2 in aqueous solution without micelles ([3]; crystalline Drug 2, separate experiments): approximately 0.010 μg/mL
SMILES: CCOC(=O)N1c2ccc(C(F)(F)F)cc2C(N(Cc2cc(C(F)(F)F)cc(C(F)(F)F)c2)C(=O)OC)CC1CC (stereo not drawn) [Drug 2, 4-[(3,5-bis-trifluoromethyl-benzyl)-methoxycarbonyl-amino]-2-ethyl-6-trifluoromethyl-3,4-dihydro-2H-quinoline-1-carboxylic acid ethyl ester]

- solubility ([3]; Solubility of Drug 3, crystalline Drug 3): 0.004 µg/mL (≈ 0.00745 µM)
SMILES: Cc1ncccc1CNC(=O)c1ccc2c(c1)CC[C@@H]1C[C@@](O)(CCC(F)(F)F)CC[C@@]21Cc1ccccc1 [Drug 3, 2-phenanthrenecarboxamide, 4b,5,6,7,8,8a,9,10-octahydro-7-hydroxy-N-[(2-methyl-3-pyridinyl)methyl]-4b-(phenylmethyl)-7-(3,3,3-trifluoropropyl)-, (4bS,7S,8aR)-]

SMILES: Cc1cccc(NC(=O)N[C@@H]2N=C(c3ccccc3)c3ccccc3N(CC(=O)c3ccccc3C)C2=O)c1 [YM022]
- Mean diameter of colloidal particles [4]: 160 nm
- Absorption on oral administration [5]: good absorption
